Results reported in patent US20050244907A1, “Methods, compositions, and kits for analysis of enzyme activity in cells” (Applera Corporation, priority 2003, published 2005).

Legend:
CHO cells = test: Cell staining with liposomes containing DDAO-gal, CHO cells (FMAT fluorescence); type: cell-based, Chinese Hamster; settings: no endogenous β-galactosidase, 3 hr at 37° C., excitation 633 nm
Procedure: The experiments shown in FIGS. 7-9, were conducted under similar conditions to those of FIGS. 1-3, respectively, with the exception that Chinese Hamster Ovary (CHO) cells were used.

E. coli β-galactosidase = E. coli β-galactosidase (Escherichia coli, UniProt P00722); settings: psi 2 BAGα cells constitutively expressing β-galactosidase; 3 hr at 37° C.; excitation 633 nm; emission 685-710 nm (panel B)
Chain of E. coli β-galactosidase (P00722 whole entry): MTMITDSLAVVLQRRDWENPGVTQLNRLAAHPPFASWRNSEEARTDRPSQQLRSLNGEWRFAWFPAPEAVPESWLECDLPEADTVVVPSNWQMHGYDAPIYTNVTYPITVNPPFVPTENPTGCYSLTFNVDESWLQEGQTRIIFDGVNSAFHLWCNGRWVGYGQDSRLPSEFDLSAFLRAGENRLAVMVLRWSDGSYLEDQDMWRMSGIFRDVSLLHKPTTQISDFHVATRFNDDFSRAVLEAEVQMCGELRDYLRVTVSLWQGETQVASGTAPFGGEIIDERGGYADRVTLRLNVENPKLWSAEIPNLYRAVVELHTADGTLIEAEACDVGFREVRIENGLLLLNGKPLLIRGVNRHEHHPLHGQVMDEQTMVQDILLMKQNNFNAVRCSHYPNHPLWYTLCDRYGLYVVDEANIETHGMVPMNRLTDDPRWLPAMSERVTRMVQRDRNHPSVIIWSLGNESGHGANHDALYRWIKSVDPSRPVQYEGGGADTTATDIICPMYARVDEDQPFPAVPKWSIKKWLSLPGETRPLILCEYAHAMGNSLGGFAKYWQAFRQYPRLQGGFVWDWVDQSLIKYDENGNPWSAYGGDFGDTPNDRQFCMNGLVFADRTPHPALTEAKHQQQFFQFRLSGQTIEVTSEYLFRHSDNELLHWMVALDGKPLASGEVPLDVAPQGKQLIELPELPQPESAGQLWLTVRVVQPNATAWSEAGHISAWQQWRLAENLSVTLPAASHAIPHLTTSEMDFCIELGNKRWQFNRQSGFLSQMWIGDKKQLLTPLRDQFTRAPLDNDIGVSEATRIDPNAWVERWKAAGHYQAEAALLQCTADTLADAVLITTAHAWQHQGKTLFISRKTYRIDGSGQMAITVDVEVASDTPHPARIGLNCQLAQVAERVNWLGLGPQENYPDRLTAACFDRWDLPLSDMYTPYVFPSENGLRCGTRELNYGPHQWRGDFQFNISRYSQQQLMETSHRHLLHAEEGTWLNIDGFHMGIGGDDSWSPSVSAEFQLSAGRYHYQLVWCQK
Procedure: Psi 2 BAGα cells (ATCC, catalog no. CRL-9560) in Dulbecco's modified Eagle's medium (ATCC, catalog no. 30-2002) containing 5% Fetal Bovine Serum (FBS, HyClone, catalog no. SH30071.03) and 1% penicillin-streptomycin solution (pen/strep, ATCC, catalog no. 30-2300) were seeded (200 μl/well, 10,000 cell/well) in black 96 well microtiter plates (ABI, catalog no. 4308776). […] After overnight incubation at 37° C. under 5% CO2 the supernatants were removed carefully so as not to detach the adherent cells from the wells. Solutions of liposome encapsulated DDAO-gal, liposome encapsulated DDAO and nonencapsulated DDAO-gal were prepared in the appropriate cell medium and then added to the cells (200 μl/well). The nonencapsulated DDAO-gal solution was used as a negative control (no liposome, passive uptake) and the liposome encapsulated DDAO solution was used as a positive control (DDAO is the product of DDAO-gal hydrolysis). After incubation for 3 hr at 37° C. under 5% CO2 the staining solutions were removed carefully and the cells were washed twice with Dulbecco's PBS (200 μl, ATCC, catalog no. 30-2200). PBS (200 μl) was added to the wells and the plate was read using an 8100 FMAT instrument (Applied Biosystems, an Applera Corporation business).
DDAO-gal without liposomes were used as a negative control (passive load) and liposomes containing DDAO were used as a positive control. […]

## CC1(C)C2=C(Cl)C(=O)C(Cl)=CC2=Nc2ccc(O[C@@H]3O[C@H](CO)[C@H](O)[C@H](O)[C@H]3O)cc21 [DDAO-gal, 9H-(1,3-dichloro-9,9-dimethylacridin-2-one-7-yl) β-D-galactopyranoside]
CHO cells
  fluorescent signal: signal observed
E. coli β-galactosidase
  fluorescent signal: much lower signal
